This is an account of results in patent publication US7718651B2, “Inhibitors of FtsZ and uses thereof” (priority 2002, dated 2010).

For the first experiment, the system named is M. tuberculosis H37Rv. The experiment in a line: microbe, parasite or virus in culture. The experiment is classed as cell-based.
Details: not given
With `CCOC(=O)Nc1cc2c(c(N)n1)N=C(c1ccccc1)[C@H](C)N2` [Compound A108], the “% Inh” value is 45%.

Staying with this experiment, now noted: M. tuberculosis H37Rv, screen concentration 12.5 g/ml [sic], Table 8.
Turning to `CCOC(=O)Nc1cc(NC(c2ccccc2)c2ccccc2)c2ncc(O)nc2n1` [Compound A61], the “% Inh” value is reported as 87%.
Regarding `CCOC(=O)Nc1cc(NCC(O)CN)c([N+](=O)[O-])c(NC(=O)OCC)n1` (centres unmarked) [Compound A271], the “% Inh” value is 0%.
Still for that read-out and setting: as for `CCOC(=O)Nc1cc(NC(c2ccccc2)c2ccccc2)c2nc(-c3ccccc3)c(-c3ccccc3)nc2n1` [Compound A119], the figure is 36%; as for `CCOC(=O)Nc1cc(NC/C(=N/O)c2ccccc2)c([N+](=O)[O-])c(N)n1` [Compound A235], 0%; as for `CCOC(=O)Nc1cc2c(c(N)n1)N=C(CN(C)c1ccccc1)CN2` [Compound A45], 93%.
Same read-out and setting: as for `CCOC(=O)Nc1cc(NCC(O)CN(C)c2ccc(C)cc2)c([N+](=O)[O-])c(N)n1.Cl` (centres unmarked) [Compound A62], the figure is 86%; as for `CCOC(=O)Nc1cc2c3c(n1)[nH]c(=S)n3c(=S)n2N` [Compound A199], 0%.
Same read-out and setting: the result for `CCOC(=O)Nc1cc2c([nH]c(=S)n2N)c(N)n1` [Compound A200] reads 0%; that for `CCOC(=O)Nc1cc(NC(c2ccccc2)c2ccccc2)c([N+](=O)[O-])c(O)n1` [Compound A298], 0%.
For the compound `CCOC(=O)Nc1cc(NC(CC)C(O)c2ccccc2)c([N+](=O)[O-])c(N)n1` (centres unmarked) [Compound A301], the “% Inh” value is reported as −1%.
Still for that read-out and setting: as for `CCOC(=O)Nc1cc(Cl)c2ncc(-c3ccc(Cl)cc3)nc2n1` [Compound A187], the figure is 1%; as for `CCOC(=O)Nc1cc(N)c2ncn(/N=C/c3ccccc3)c2n1` [Compound A81], 69%; as for `CCOC(=O)Nc1cc(NCC(C)CN(C)c2ccc(OC)cc2)c([N+](=O)[O-])c(N)n1` (centres unmarked) [Compound A233], 0%.
On the same count and under the same terms, the result for `CCOC(=O)Nc1cc(N)c2nc(-c3ccccc3)cnc2n1` [Compound A148] reads 14%; that for `CCOC(=O)Nc1cc(N)c2c(n1)NCC(C)=N2` [Compound A283], 0%; that for `CCOC(=O)Nc1cc2c(c(NC(=O)CBr)n1)N=C(c1ccccc1)CO2` [Compound A229], 0%.
The same measure, in the same setting: the result for `CCOC(=O)Nc1cc(NC/C(CCc2ccccc2)=N\O)c([N+](=O)[O-])c(N)n1` [Compound A136] reads 21%; that for `CCOC(=O)Nc1cc2[nH]cnc2c(Cl)n1` [Compound A203], 0%; that for `CCOC(=O)Nc1cc2c(c(N)n1)N=C(c1cccc(OC)c1)CS2` [Compound A68], 79%.
As to `CCOC(=O)Nc1cc2[nH]c(-c3ccc(O)cc3)nc2c(N)n1` [Compound A152], the “% Inh” value came out at 13%.
On to `CCOC(=O)Nc1cc(N/N=C/c2ccccc2)c(N)c(N)n1` [Compound A54], for which the “% Inh” value stood at 91%.
On the same count and under the same terms, as for `CCOC(=O)Nc1cc(NNC=O)c([N+](=O)[O-])c(N)n1` [Compound A205], the figure is 0%; as for `CCOC(=O)Nc1cc2[nH]c(-c3ccc(CC)cc3)nc2c(N(CCc2ccccc2)Cc2ccccc2)n1` [Compound A17], 98%.
Take `CCOC(=O)Nc1cc(N)c([N+](=O)[O-])c(N)n1` [Compound A162]: the “% Inh” value is listed as 8%.
Same read-out and setting: the result for `CCOC(=O)Nc1cc(N[C@H](C)C(=O)c2ccccc2)c([N+](=O)[O-])c(N)n1` [Compound A198] reads 0%; that for `COC(=O)Nc1cc(NC(C)/C(=N/O)c2cccc([N+](=O)[O-])c2)c([N+](=O)[O-])c(N)n1` (centres unmarked) [Compound A177], 4%.
On the same count and under the same terms, as for `CCOC(=O)Nc1cc2c(c(N)n1)N=C(c1ccc(O)cc1)[C@H](C)N2` [Compound A164], the figure is 8%.
The same measure, in the same setting: the result for `CCOC(=O)Nc1cc2c(c(N)n1)N=C(c1ccc(OC)c(OC)c1)CO2` [Compound A193] reads 0%.
Regarding `CCOC(=O)Nc1cc(NCC(=O)c2ccc(C)c(C)c2)c([N+](=O)[O-])c(N)n1` [Compound A208], the “% Inh” value stood at 0%.
Same read-out and setting: the result for `CCOC(=O)Nc1cc2c(c(N)n1)N=C(c1ccccc1)C(CC)N2` (centres unmarked) [Compound A306] reads −3%; that for `CCOC(=O)Nc1cc(NC(c2ccccc2)c2ccccc2)c2[nH]c(=O)cnc2n1` [Compound A70], 76%; that for `CCOC(=O)Nc1cc(NCC(=O)c2ccc([N+](=O)[O-])cc2)c([N+](=O)[O-])c(N)n1` [Compound A220], 0%.
Same read-out and setting: the result for `CCOC(=O)Nc1cc2c(ncn2/N=C/c2ccc(OC)cc2)c(N)n1` [Compound A242] reads 0%; that for `CCOC(=O)Nc1cc(NC(C)[C@H](O)c2ccccc2)c(N)c(N)n1` (some centres unmarked) [Compound A312], −19%; that for `CCOC(=O)Nc1cc(N)c2nc[nH]c2n1` [Compound A217], 0%.
Still for that read-out and setting: as for `CCOC(=O)Nc1cc(N/N=C/c2ccccc2)c2nc[nH]c2n1` [Compound A48], the figure is 92%.
Take `CCCCOC(=O)Nc1cc(NC(c2ccccc2)c2ccccc2)c2nc(-c3cc(OC)c(OC)c(OC)c3)c(-c3cc(OC)c(OC)c(OC)c3)nc2n1` [Compound A267]: the “% Inh” value worked out at 0%.
Still for that read-out and setting: as for `CCOC(=O)Nc1cc2c(c(N)n1)N=C(c1ccc(C)c(C)c1)CN2` [Compound A88], the figure is 64%.
On the same count and under the same terms, the result for `CCOC(=O)Nc1cc(NCC(=O)COc2ccc(C(=O)OCC)cc2)c([N+](=O)[O-])c(N)n1` [Compound A292] reads 0%; that for `CCOC(=O)Nc1nc(NC(=O)OCC)c2c(c1N)NC(C)C(c1ccccc1)=N2` (centres unmarked) [Compound A194], 0%; that for `CCOC(=O)Nc1cc(Nc2ccccc2)c2nc[nH]c2n1.Cl` [Compound A64], 84%.
Same read-out and setting: the result for `CCOC(=O)Nc1cc(N)c2ncn(-c3ccccc3)c2n1` [Compound A103] reads 53%; that for `CCOC(=O)Nc1cc(NC(c2ccccc2)c2ccccc2)c2ncc(=O)[nH]c2n1` [Compound A270], 0%; that for `CCOC(=O)Nc1cc(NC(C)C(O)Cc2ccccc2)c([N+](=O)[O-])c(N)n1` (centres unmarked) [Compound A104], 51%.
On to `CCOC(=O)Nc1cc(N)c2ncc(-c3ccc(Cl)cc3)nc2n1` [Compound A262], for which the “% Inh” value turned out to be 0%.
Same read-out and setting: as for `CCOC(=O)Nc1cc(NCc2ccc(S(N)(=O)=O)cc2)c([N+](=O)[O-])c(N)n1` [Compound A244], the figure is 0%; as for `CCOC(=O)Nc1cc2[nH]c(-c3cccc4ccccc34)nc2c(N(CCc2ccccc2)Cc2ccccc2)n1` [Compound A18], 98%.
The same measure, in the same setting: the result for `CCOC(=O)Nc1cc2[nH]c(-c3ccc4c(c3)OCO4)nc2c(N(CCc2ccccc2)Cc2ccccc2)n1` [Compound A151] reads 14%.
On the same count and under the same terms, as for `CCOC(=O)Nc1cc2c(c(N)n1)N=C(c1ccc(O)cc1)[C@H](C)N2` [Compound A170], the figure is 7%; as for `CCOC(=O)Nc1cc(NCCc2ccc(S(N)(=O)=O)cc2)c2ncc(C)nc2n1` [Compound A251], 0%; as for `COC(=O)Nc1cc(Cl)c([N+](=O)[O-])c(NC(=O)OC)n1` [Compound A165], 8%.
Take `CCCCC(Nc1cc(NC(=O)OCC)nc(N)c1[N+](=O)[O-])C(C)=O` (centres unmarked) [Compound A67]: the “% Inh” value stood at 81%.
